One series concerns the target human recombinant MAGL (Homo sapiens (Human), UniProt Q99685). In words: In vitro inhibition of MAGL activity (inhibitor screening kit, 4-nitrophenylacetate). In kind it is biochemical. The settings on record: human recombinant MAGL. The method, boiled down:
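Percent inhibition derived from absorbance (405-412 nm) of treated wells relative to untreated enzyme control. Human recombinant MAGL with 4-nitrophenylacetate substrate, whose cleavage yields yellow 4-nitrophenol.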

Series [1] in a line: Plasma stability (LC-MS/MS, % parent compound remaining, half-life). The settings on record: human plasma; for half-life at 1 μM: 37° C., 0-240 mins, read-out: Human Plasma Stability (t1/2, min); for plasma stability and/or aqueous solubility compared to reference compound URB597: see Table 5. The class given is in vitro ADME. How it is done:
Exemplary compounds described herewith were assayed for plasma stability (various species).
Plasma was removed from deep freezer and allowed to thaw at room temperature (or at 37° C. if needed). Plasma was then centrifuged at 4,000 rpm at RT for 10 min and supernatant was collected and used for the assay: • Drug test tubes: 297 μL plasma/drug test tube, duplicate/drug. • Blank test tubes: 297 μL plasma/Blank test tube, duplicate, too. (Optional, if assay system is stable and consistent) • T0 plasma tube: […] X No. of total sample tubes+50 μL extra for T0 extraction. • (Note: equivalent proportion of solvent mixture as added in drug test tubes will be added before T0 extraction!)
Take out the pre-warmed plasma tubes from the 37° C. incubator. Add 3 μL of 100 μM stock solution (or, equivalent proportion of the solvent mixture to T0 plasma tube for T0 extraction) to each corresponding sample tubes in order, vortex gently (3×) to mix. Finish the sample tubes orderly and quickly, then transfer them to the Thermomixer (program & 37° C. ready), and start the Thermomixer. Record starting time on paper & start the timer for 15 min for the 1st sampling time point.
Now add the equivalent amount of solvent mixture to the T0 plasma tube, mix, and transfer 50 μL plasma to each of the T0 extracting tubes, vortex 20s and placed on ice. Vortex 10s again before centrifuging the samples at 14,000 rpm for 5 min at 4° C.
Repeat the above procedures at each time point (15, 30, 60, 120, 240 min) by transferring 50 μL plasma samples from the testing tubes to the corresponding extracting tubes, in the same order and time scheme as in the addition of the drug to the plasma samples at the beginning of the study.
• Kel=Slope of LN % PCR vs time
Half life (t½)=0.693/Kel (1)

The target of a further series is human recombinant FAAH (Homo sapiens (Human), UniProt O00519). Description: In vitro inhibition of FAAH activity (fluorescent inhibitor screening kit, AMC arachidonoyl amide). In kind it is biochemical. The method, boiled down:
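Fluorogenic kit assay: AMC arachidonoyl amide is cleaved by human recombinant FAAH, read at 340-360/450-465 nm. Percent inhibition versus non-treated control; IC50 values derived from multiple compound concentrations where tested.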

A short description of series [2]: Aqueous solubility in PBS buffer pH 7.4 (LC-MS). The conditions noted are these: phosphate buffer, kinetic from dmso stock, PBS buffer pH 7.4, room temperature, spiked at 100 μM from DMSO stock. The class given is physicochemical. On the procedure: Compounds as described herewith were analyzed for their aqueous solubility.
The aqueous solubility of compounds were determined using standard protocols. To illustrate the experimental protocol, the analysis of a representative compound is described. Exemplary compound of Example 158 (MW: 380.4 g/mol) was analyzed in a buffer system at specified pH (phosphate buffer, pH 7.4). This was accomplished by spiking a DMSO stock solution of the test compound at a final concentration of 100 μM in buffer.
Solubility calculation: This is a quantitative assay. The mixture at the end of the assay is filtered by 0.22 micron syringe filter and after 5× dilution in diluent, it was analyzed versus a calibration curve using LC-MS.

Where [3] appears, read: FAAH, values as listed in Table 5, read-out: IC50.
Setting [4] is: human recombinant FAAH, read-out: Inhibition on FAAH activity (IC50).

≈ marks a conversion by molar mass, not a printed value. Like-named read-outs stand apart in the source and are kept apart here.

Chain of human recombinant FAAH (O00519 whole entry): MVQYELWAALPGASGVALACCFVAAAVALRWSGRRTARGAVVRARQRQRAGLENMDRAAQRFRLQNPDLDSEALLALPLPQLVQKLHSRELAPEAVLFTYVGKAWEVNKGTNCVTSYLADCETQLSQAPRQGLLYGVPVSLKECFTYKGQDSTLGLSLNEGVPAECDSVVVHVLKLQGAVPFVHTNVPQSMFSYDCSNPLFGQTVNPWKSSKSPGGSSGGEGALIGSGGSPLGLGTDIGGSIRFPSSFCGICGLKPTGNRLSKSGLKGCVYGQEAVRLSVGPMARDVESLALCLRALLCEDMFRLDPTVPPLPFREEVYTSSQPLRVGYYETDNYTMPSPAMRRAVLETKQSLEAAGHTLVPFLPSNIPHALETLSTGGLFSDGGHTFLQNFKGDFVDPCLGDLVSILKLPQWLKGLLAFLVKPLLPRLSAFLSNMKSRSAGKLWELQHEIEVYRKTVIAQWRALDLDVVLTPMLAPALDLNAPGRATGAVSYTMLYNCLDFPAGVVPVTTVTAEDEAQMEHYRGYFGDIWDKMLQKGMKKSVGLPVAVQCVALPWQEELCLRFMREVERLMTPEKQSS
Chain of human recombinant MAGL (Q99685 whole entry): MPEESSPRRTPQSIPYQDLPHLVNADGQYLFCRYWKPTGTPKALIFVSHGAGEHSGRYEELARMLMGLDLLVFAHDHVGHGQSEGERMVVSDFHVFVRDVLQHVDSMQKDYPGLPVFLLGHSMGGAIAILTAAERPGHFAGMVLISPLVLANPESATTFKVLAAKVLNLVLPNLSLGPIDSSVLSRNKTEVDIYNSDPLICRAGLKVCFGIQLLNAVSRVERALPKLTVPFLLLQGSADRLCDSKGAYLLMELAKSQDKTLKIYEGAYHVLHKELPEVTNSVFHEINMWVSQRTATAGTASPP

In the case of `O=C(NC1CCCCCC1)Oc1cccc(-c2cncc(-c3ncn[nH]3)c2)c1` [Example 225, 3-(5-(1H-1,2,4-triazol-5-yl)pyridin-3-yl)phenyl cycloheptyl carbamate], the figures for the concentration for half-maximal inhibition (IC50) at human recombinant MAGL, at human recombinant FAAH (setting [3]) and on human recombinant FAAH (setting [4]) were about 10000 nM, 176 nM and 176 nM, respectively. Moreover, in series [1], the half-life at 1 μM came out at 47 min. Besides, in series [1], the “plasma stability and/or aqueous solubility compared to reference compound URB597” value was “improved plasma stability, improved aqueous solubility, or improved plasma stability and aqueous solubility”. This molecule displayed a solubility in series [2] of 8.6 µM (≈ 3.25 µg/mL).
On to `O=C(NC1CCCCC1)Oc1cccc(-c2cncc(-c3ccco3)c2)c1` [Example 51, 3-(5-(furan-2-yl)pyridin-3-yl)phenyl cyclohexylcarbamate], for which the figures for the half-maximal inhibitory concentration (IC50) on human recombinant MAGL, at human recombinant FAAH (setting [3]) and on human recombinant FAAH (setting [4]) were over 10000 nM, 76.1 nM and 76.1 nM, respectively. Besides, the half-life at 1 μM in series [1] worked out at 8 min. For the same molecule, the solubility in series [2] was determined as 1.4 µM (≈ 0.507 µg/mL).
Take `O=C(NC1CCCCCC1)Oc1cc(F)cc(-c2cncc(-c3nnco3)c2)c1` [Example 198, 3-(5-(1,3,4-oxadiazol-2-yl)pyridin-3-yl)-5-fluorophenyl cycloheptylcarbamate]: the figures for the concentration for half-maximal inhibition (IC50) at human recombinant MAGL, at human recombinant FAAH (setting [3]) and on human recombinant FAAH (setting [4]) were over 10000 nM, 132 nM and 132 nM, respectively. Also, in series [1], the half-life at 1 μM turned out to be 4.7 min. In series [2], this molecule registered a solubility of 5.7 µM (≈ 2.26 µg/mL).
In the case of `O=C(NC1CCCCCC1)Oc1ccc(O)c(-c2cncc(-c3ncn[nH]3)c2)c1` [Example 231, 3-(5-(1H-1,2,4-triazol-5-yl)pyridin-3-yl)-4-hydroxyphenyl cycloheptylcarbamate], the half-inhibitory concentration (IC50) at human recombinant MAGL was over 10000 nM; at human recombinant FAAH (setting [3]) it was 137 nM; at human recombinant FAAH (setting [4]), 137 nM. Besides, the half-life at 1 μM in series [1] is 634 min. The “plasma stability and/or aqueous solubility compared to reference compound URB597” value in series [1] is “improved plasma stability, improved aqueous solubility, or improved plasma stability and aqueous solubility”. Further, the solubility in series [2] was 78.8 µM (≈ 31 µg/mL).
With `O=C(Oc1cccc(-c2cncc(-c3nnco3)c2)c1)N1CC2(CCC2)C1` [Example 146, 3-(5-(1,3,4-oxadiazol-2-yl)pyridin-3-yl)phenyl 2-azaspiro[3.3]heptane-2-carboxylate], the values for the 50% inhibitory concentration (IC50) on human recombinant MAGL, on human recombinant FAAH (setting [3]) and at human recombinant FAAH (setting [4]) were over 10000 nM, 401 nM and 401 nM, respectively. For the same molecule, the half-life at 1 μM in series [1] stood at 186 min. Besides, in series [1], the “plasma stability and/or aqueous solubility compared to reference compound URB597” value was “improved plasma stability, improved aqueous solubility, or improved plasma stability and aqueous solubility”. This molecule came in with a solubility in series [2] of 82.7 µM (≈ 30 µg/mL).
In the case of `O=C(NC1CCCCCC1)Oc1cc(O)cc(-c2cncc(-c3nnco3)c2)c1` [Example 165, 3-(5-(1,3,4-oxadiazol-2-yl)pyridin-3-yl)-5-hydroxyphenyl cycloheptylcarbamate], the half-inhibitory concentration (IC50) at human recombinant MAGL is over 10000 nM; on human recombinant FAAH (setting [3]) it was 25.8 nM; on human recombinant FAAH (setting [4]) it was 25.8 nM. In addition, the half-life at 1 μM in series [1] amounted to 28 min. The molecule further registered a solubility in series [2] of 22.6 µM (≈ 8.91 µg/mL).
For the molecule `O=C(NC1CCCCCC1)Oc1ccc(OC(F)(F)F)c(-c2cncc(-c3ncco3)c2)c1` [Example 91, 3-(5-(oxazol-2-yl)pyridin-3-yl)-4-(trifluoromethoxy)phenyl cycloheptylcarbamate], the IC50 on human recombinant MAGL is over 10000 nM; on human recombinant FAAH (setting [3]), 492 nM; on human recombinant FAAH (setting [4]), 100 to 1000 nM. Further, the half-life at 1 μM in series [1] was found to be 14 min. The molecule also came in with a solubility in series [2] of 2.4 µM (≈ 1.11 µg/mL).
For the molecule `CSc1ccc(OC(=O)NC2CCCCCC2)cc1-c1cncc(-c2nnco2)c1` [Example 191, 3-(5-(1,3,4-oxadiazol-2-yl)pyridin-3-yl)-4-(methylthio)phenyl cycloheptylcarbamate], the IC50 at human recombinant MAGL was over 10000 nM; on human recombinant FAAH (setting [3]), 153 nM; at human recombinant FAAH (setting [4]) it was 153 nM. For the same molecule, the half-life at 1 μM in series [1] worked out at 31 min. Moreover, the “plasma stability and/or aqueous solubility compared to reference compound URB597” value in series [1] was “improved plasma stability, improved aqueous solubility, or improved plasma stability and aqueous solubility”. In series [2], this molecule gave a solubility of 11.9 µM (≈ 5.05 µg/mL).
Consider `O=C(NC1CCCCC1)Oc1cccc(-c2cncc(-c3nnco3)n2)c1` [Example 267, 3-(6-(1,3,4-oxadiazol-2-yl)pyrazin-2-yl)phenyl cyclohexylcarbamate], for which the IC50 was over 10000 nM on human recombinant MAGL, 140 nM on human recombinant FAAH (setting [3]) and 140 nM on human recombinant FAAH (setting [4]). The half-life at 1 μM in series [1] was determined as 12 min. Moreover, the concentration in solution in series [2] (solubility) was 73.6 µM (≈ 26.9 µg/mL).
For the molecule `O=C(NC1CCCCCC1)Oc1cccc(-c2cncc(-c3cccs3)c2)c1` [Example 64, 3-(5-(thiophen-2-yl)pyridin-3-yl)phenyl cycloheptylcarbamate], the IC50 on human recombinant MAGL was over 10000 nM; at human recombinant FAAH (setting [3]) it was 39.1 nM; on human recombinant FAAH (setting [4]) it was 39.1 nM. Also, the half-life at 1 μM in series [1] was 24 min.
In the case of `O=C(NC1CCCCC1)Oc1cccc(-c2cncc(-c3nccs3)c2)c1` [Example 119, 3-(5-(thiazol-2-yl)pyridin-3-yl)phenyl cyclohexylcarbamate], the half-maximal inhibitory concentration (IC50) is over 10000 nM on human recombinant MAGL and 10 to 100 nM at human recombinant FAAH (setting [4]).
Consider `COc1ccc(OC(=O)NCc2ccccc2)cc1-c1cncc(-c2nccs2)c1` [Example 123, 4-methoxy-3-(5-(thiazol-2-yl)pyridin-3-yl)phenyl benzylcarbamate], for which the results for the concentration for half-maximal inhibition (IC50) on human recombinant MAGL and at human recombinant FAAH (setting [4]) were over 10000 nM and about 1000 nM, respectively.
For `O=Cc1cncc(-c2cccc(OC(=O)NC34CC5CC(CC(C5)C3)C4)c2)c1` [Example 21, 3-(5-formylpyridin-3-yl)phenyl ((1s,3s)-adamantan-1-yl)carbamate], the figures for the IC50 at human recombinant MAGL and on human recombinant FAAH (setting [4]) were over 10000 nM and over 1000 nM, respectively.
`CCCCN(CCCC)C(=O)Oc1cccc(-c2cncc(-c3nnco3)c2)c1` [Example 155, 3-(5-(1,3,4-oxadiazol-2-yl)pyridin-3-yl)phenyl dibutylcarbamate]: the figures for the IC50 on human recombinant MAGL and at human recombinant FAAH (setting [4]) were about 10000 nM and over 1000 nM, respectively.
On to `O=C(Oc1cccc(-c2cncc(-c3nnco3)c2)c1)N1CCC2(CC1)COC2` [Example 153, 3-(5-(1,3,4-oxadiazol-2-yl)pyridin-3-yl)phenyl 2-oxa-7-azaspiro[3.5]nonane-7-carboxylate], for which the concentration for half-maximal inhibition (IC50) is over 10000 nM at human recombinant MAGL and 1000 to 10000 nM at human recombinant FAAH (setting [4]).
With `O=C(NCC1CCCCC1)Oc1cccc(-c2cncc(-c3nncs3)c2)c1` [Example 208, 3-(5-(1,3,4-thiadiazol-2-yl)pyridin-3-yl)phenyl (cyclohexylmethyl)carbamate], the figures for the IC50 on human recombinant MAGL and on human recombinant FAAH (setting [4]) were over 10000 nM and 10 to 100 nM, respectively.
For the molecule `O=C(NC1CCCCC1)Oc1cccc(-c2cncc(-c3ncno3)c2)c1` [Example 205, 3-(5-(1,2,4-oxadiazol-5-yl)pyridin-3-yl)phenyl cyclohexylcarbamate], the IC50 at human recombinant MAGL was over 10000 nM; at human recombinant FAAH (setting [4]), 10 to 100 nM.
The corresponding values for `O=C(NCc1ccccc1)Oc1cccc(-c2cncc(-c3nccs3)c2)c1` [Example 117, 3-(5-(thiazol-2-yl)pyridin-3-yl)phenyl benzylcarbamate] are over 10000 nM and 100 to 1000 nM.
For the molecule `O=C(NC1CCCCC1)Oc1cccc(-c2cncc(-c3ccc[nH]3)c2)c1` [Example 39, 3-(5-(1H-pyrrol-2-yl)pyridin-3-yl)phenyl cyclohexylcarbamate], the half-maximal inhibitory concentration (IC50) on human recombinant MAGL is over 10000 nM; at human recombinant FAAH (setting [4]) it was 100 to 1000 nM.
The corresponding values for `O=C(NC1CCCCCC1)Oc1cccc(-c2cncc(-c3ccno3)c2)c1` [Example 108, 3-(5-(isoxazol-5-yl)pyridin-3-yl)phenyl cycloheptylcarbamate] are over 1000 nM and 10 to 100 nM.
As for `O=C(NC1CCCCCC1)Oc1ccc(F)c(-c2cncc(-c3nnco3)c2)c1` [Example 194, 3-(5-(1,3,4-oxadiazol-2-yl)pyridin-3-yl)-4-fluorophenyl cycloheptylcarbamate], the IC50 at human recombinant MAGL was over 10000 nM; on human recombinant FAAH (setting [3]), 49.1 nM; at human recombinant FAAH (setting [4]), 49.1 nM. In addition, the half-life at 1 μM in series [1] amounted to 41 min. Also, the “plasma stability and/or aqueous solubility compared to reference compound URB597” value in series [1] is “improved plasma stability, improved aqueous solubility, or improved plasma stability and aqueous solubility”.

These data come from US20250129027A1 (APOGEE PHARMACEUTICALS, INC., priority 2023, published 2025).
